Measurements reported in ChEMBL document CHEMBL1201862, “PubChem BioAssay data set” (2004).
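How tested: cells in 96-well plates exposed to compound for 48 hours at five concentrations. Abbreviation: GI50, concentration required for 50% inhibition of growth.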 Active and inactive are the calls of the source. Rule as the data show it: active = GI50 up to about 1.1 µM and inactive = higher.

Key:
Experiment in all cases: inhibition of tumour cell growth, NCI panel, 48 h
[1] = tested on: A498
[2] = tested on: TK-10
[3] = tested on: HOP-62
[4] = tested on: MOLT-4
[5] = tested on: NCI-H226
[6] = tested on: K562
[7] = tested on: MDA-MB-231
[8] = tested on: IGROV-1
[9] = tested on: SW-620
[10] = tested on: NCI-H522
[11] = tested on: NCI-H23
[12] = tested on: MCF7
[13] = tested on: COLO 205
[14] = tested on: SK-OV-3
[15] = tested on: Hs-578T
[16] = tested on: OVCAR-8
[17] = tested on: KM12
[18] = tested on: OVCAR-4
[19] = tested on: LOX IMVI
[20] = tested on: SNB-75
[21] = tested on: SK-MEL-5
[22] = tested on: CAKI-1
[23] = tested on: 786-0
[24] = tested on: PC-3
[25] = tested on: A549
[26] = tested on: M14
[27] = tested on: T47D
[28] = tested on: NCI-H460
[29] = tested on: MDA-N
[30] = tested on: UO-31
[31] = tested on: BT-549
[32] = tested on: HT-29
[33] = tested on: MDA-MB-435
[34] = tested on: CCRF-CEM
[35] = tested on: OVCAR-3
[36] = tested on: OVCAR-5
[37] = tested on: SK-MEL-2
[38] = tested on: DU-145
[39] = tested on: HCC 2998
[40] = tested on: SF-268
[41] = tested on: EKVX
[42] = tested on: SR
[43] = tested on: NCI/ADR-RES
[44] = tested on: UACC-62
[45] = tested on: SN12C
[46] = tested on: RXF 393
[47] = tested on: SF-295
[48] = tested on: Malme-3M
[49] = tested on: SK-MEL-28
[50] = tested on: ACHN
[51] = tested on: SNB-19
[52] = tested on: HCT-15
[53] = tested on: HOP-92
[54] = tested on: RPMI-8226
[55] = tested on: U-251
[56] = tested on: HCT-116
[57] = tested on: UACC-257

For `O=c1c2c3c(sc2nc2n1N=CN(c1ccc(Cl)cc1)C2)CCCC3`, the GI50 [1] was 4.12 µM (inactive), the GI50 [2] was > 100 µM (inactive) and the GI50 [3] was 50 µM (inactive). For the same molecule, the GI50 [4] was 17.9 µM (inactive), the GI50 [5] was 42.3 µM (inactive) and the GI50 [6] was 19.3 µM (inactive). The GI50 [7] was 16.7 µM (inactive), the GI50 [8] was > 100 µM (inactive) and the GI50 [9] was > 100 µM (inactive). For the same molecule, the GI50 [10] was 10.5 µM (inactive), the GI50 [11] was > 100 µM (inactive) and the GI50 [12] was > 100 µM (inactive). For the same molecule, the GI50 [13] was 35.8 µM (inactive), the GI50 [14] was > 100 µM (inactive) and the GI50 [15] was 3.93 µM (inactive). For the same molecule, the GI50 [16] was 83.8 µM (inactive), the GI50 [17] was > 100 µM (inactive) and the GI50 [18] was 52.6 µM (inactive). For the same molecule, the GI50 [19] was 36.3 µM (inactive), the GI50 [20] was 24.7 µM (inactive) and the GI50 [21] was 44.8 µM (inactive). The GI50 [22] was 23.8 µM (inactive), the GI50 [23] was 19.3 µM (inactive) and the GI50 [24] was 15.1 µM (inactive). For the same molecule, the GI50 [25] was 38.4 µM (inactive), the GI50 [26] was > 100 µM (inactive) and the GI50 [27] was 2.21 µM (inactive). For the same molecule, the GI50 [28] was 38 µM (inactive), the GI50 [29] was 56.6 µM (inactive) and the GI50 [30] was > 100 µM (inactive). The GI50 [31] was > 100 µM (inactive), the GI50 [32] was 19.5 µM (inactive) and the GI50 [33] was > 100 µM (inactive). The GI50 [34] was 17 µM (inactive), the GI50 [35] was 19.4 µM (inactive) and the GI50 [36] was > 100 µM (inactive). For the same molecule, the GI50 [37] was 43.2 µM (inactive), the GI50 [38] was 21.3 µM (inactive) and the GI50 [39] was 2.26 µM (inactive). The GI50 [40] was 20.8 µM (inactive), the GI50 [41] was 93.8 µM (inactive) and the GI50 [42] was 15.7 µM (inactive). The GI50 [43] was 74.8 µM (inactive), the GI50 [44] was 56.8 µM (inactive) and the GI50 [45] was > 100 µM (inactive). The GI50 [46] was 12.3 µM (inactive), the GI50 [47] was 70.1 µM (inactive) and the GI50 [48] was 16.2 µM (inactive). The GI50 [49] was > 100 µM (inactive), the GI50 [50] was 75 µM (inactive) and the GI50 [51] was > 100 µM (inactive). The GI50 [52] was 19.7 µM, the GI50 [53] was 8.47 µM (inactive) and the GI50 [54] was 46.8 µM (inactive). For the same molecule, the GI50 [55] was 54.1 µM (inactive), the GI50 [56] was 26.9 µM (inactive) and the GI50 [57] was 55.7 µM (inactive).
